Where “and” joins values, the source holds several entries; their conditions need not be identical. Equal entries are not always repeated. Entries after “also recorded” stand apart in the source; their conditions may differ. Where two headings read alike, the source gives them in different places.

These results are taken from patent US20230190713A1 (priority 2020, published 2023).

Data set [1] deals with 2019-nCoV (2019BetaCoV/Wuhan/WIV04/2019 strain). Kind of data set: microbe, parasite or virus in culture. The format is cell-based.
The next data set has as its system Ebola virus replicon. Kind of data set: microbe, parasite or virus in culture. It counts as cell-based. As to conditions: Zaire ebolavirus.
The test system of data set [2] is avian influenza virus A/GuangZhou/99 (H9N2). Kind of data set: organism not typed. The format is cell-based.
In data set [3] the test system is 2019-nCoV. Details: species or system K18-hACE male mice. The following applies: mouse, in vivo.
The test system of data set [4] is 2019-nCoV. Details: species or system Syrian hamster. The following applies: hamster, in vivo.
In data set [5] the test system is 2019-nCoV, Ebola virus, avian influenza virus A/GuangZhou/99 (H9N2). The format is cell-based.
In data set [6] the test system is 2019-nCoV, Ebola virus, and avian influenza virus A/GuangZhou/99 (H9N2). In words: organism not typed. It counts as cell-based. As to conditions: read-out: EC50 values (level reached).
The next data set is described as follows: in vitro. As to conditions: Syrian hamster.
The subject of a further data set is A/WSN/33(H1N1) virus. Details: species or system BALB/c female mice. As to conditions: mouse, in vivo.
[7] abbreviates: Severe acute respiratory syndrome coronavirus 2, Vero C1008, read-out: 2019-nCoV EC50 (µM).
Setting [8] is: BSR-T7/5, read-out: Ebola virus EC50 (µM).
[9] abbreviates: MDCK, read-out: A/GuangZhou/99(H9N2) EC50 (µM).
Setting [10] is: Severe acute respiratory syndrome coronavirus 2, Vero C1008, 48 h.
[11] abbreviates: Severe acute respiratory syndrome coronavirus 2, Vero C1008, read-out: concentration at which replication efficiency of 2019-nCoV is inhibited by 50%.
Where [12] appears, read: BSR-T7/5, read-out: concentration at which replication efficiency of Ebola replicon is inhibited by 50%.
The mark [13] stands for this setting: unidentified influenza virus, H9N2, MDCK, read-out: concentration at which replication efficiency of avian influenza virus H9N2 is inhibited by 50%.

`CN(/N=C/c1ccc(C(F)(F)F)cc1C(=O)O)c1nc(-c2ccccc2Cl)cs1` [Compound 8]: the EC50 in [1] (setting [7]) was above 100 µM; with Ebola virus replicon (setting [8]), 49 µM; in data set [2] (setting [9]), above 100 µM.
With `Cc1sc(N/N=C/c2ccccc2C(=O)O)nc1-c1ccccc1` [Compound 12-1], the EC50 in data set [1] (setting [7]) is 0.52 µM.
For `O=C(O)c1cc(F)c(F)cc1/C=N/Nc1nc(-c2ccccc2Cl)cs1` [Compound 23-1], the EC50 in data set [1] (setting [7]) is 5.44 µM.
Turning to `O=C(O)c1ccccc1/C=N/Nc1nc(-c2cc(Cl)ccc2Cl)cs1` [Compound 55], the EC50 in data set [1] (setting [7]) was determined as 1.02 µM; in the data set on Ebola virus replicon (setting [8]), 5.4 µM; in data set [2] (setting [9]) it was 4.06 µM.
In the same order, the values of `CCCC(C)N(/N=C/c1ccccc1C(=O)O)c1nc(-c2ccccc2Cl)cs1` (stereo not drawn) [Compound 6] are above 100 µM, 97 µM and 22.2 µM.
Consider `Cc1sc(N(C)/N=C/c2ccccc2C(=O)O)nc1-c1ccccc1` [Compound 12], for which the EC50 in data set [1] (setting [7]) was 0.35 µM.
In the case of `CCN(/N=C/c1ccccc1C(=O)O)c1nc(-c2ccccc2Cl)cs1` [Compound 2], the results for the EC50 (in [1] (setting [7]); in the data set on Ebola virus replicon (setting [8]); in data set [2] (setting [9])) were 0.16 µM, 0.13 µM and 0.28 µM, respectively.
In the same order, the values of `CCC(C)N(/N=C/c1ccccc1C(=O)O)c1nc(-c2ccccc2Cl)cs1` (stereo not drawn) [Compound 5] are above 100 µM, 89 µM and 45.4 µM.
For `CC(C)N(/N=C/c1ccccc1C(=O)O)c1nc(-c2ccccc2Cl)cs1` [Compound 4], in that order: 10.2 µM, 5.35 µM and 8.37 µM.
Regarding `CN(/N=C/c1ccccc1C(=O)O)c1nc(-c2ccccc2Cl)cs1` [Compound 1], the EC50 in data set [1] (setting [10]) stood at 0.017 µM; in [1] (setting [7]), 0.017 µM; in data set [1] (setting [11]), 0.017 µM; in the data set on Ebola virus replicon (BSR-T7/5, 24 h), 0.018 µM; with Ebola virus replicon (setting [8]) it was 0.018 µM; in the data set with Ebola virus replicon (setting [12]) it was 0.018 µM. Besides, the EC50 is 0.021 µM in data set [2] (MDCK), 0.021 µM in data set [2] (setting [9]), 0.02 µM in [2] (setting [13]) and around 0.01 µM in data set [6]. Moreover, in the data set on 2019-nCoV [3], the “weight loss and death caused by viral infection” value is recorded as “did not significantly improve; also recorded: could not significantly improve”. In the data set with 2019-nCoV [4], the “reduction of viral load in lung tissue” value was “more than 100 fold”. For the same molecule, the “viral infection-induced weight loss” value in the data set on 2019-nCoV [4] is “significantly slowed”. In addition, in data set [5], the “therapeutic effect in combination with other antiviral drugs” value is given as “better therapeutic effects”. Besides, the CC50 in the data set “in vitro” was determined as 85.8 µM.
Consider `O=C(O)c1ccccc1/C=N/Nc1nc(-c2ccccc2Cl)cs1` [Compound 16], for which the EC50 was found to be 1.56 µM in [1] (setting [10]); 1.56 µM in data set [1] (setting [7]); 1.55 µM in data set [1] (setting [11]); 11.4 µM in the data set with Ebola virus replicon (BSR-T7/5, 24 h); 11.4 µM in the data set with Ebola virus replicon (setting [8]); 15 µM in the data set with Ebola virus replicon (setting [12]). For the same molecule, the EC50 in data set [2] (MDCK) is 13.2 µM; in data set [2] (setting [9]), 13.2 µM; in [2] (setting [13]), 13.2 µM; in data set [6], around 0.01 µM. The “mice treated (survival)” value in the data set on A/WSN/33(H1N1) virus is 50%-100% and 50% and 100%. In data set [5], the “therapeutic effect in combination with other antiviral drugs” value is “better therapeutic effects”.
Regarding `Cc1sc(N(C)/N=C/c2ccccc2C(=O)O)nc1-c1ccccc1Cl` [Compound 13], the EC50 in data set [1] (setting [7]) is above 100 µM; in [2] (setting [9]) it was 8.27 µM.
Turning to `Cc1ccc(/C=N/Nc2nc(-c3ccccc3Cl)cs2)c(C(=O)O)c1` [Compound 9-1], the EC50 in data set [1] (setting [7]) amounted to 0.07 µM; with Ebola virus replicon (setting [8]), 0.89 µM; in [2] (setting [9]), 0.33 µM.
In the same order, the values of `O=C(O)c1cc(C(F)(F)F)ccc1/C=N/Nc1nc(-c2ccccc2Cl)cs1` [Compound 8-1] are 5.25 µM, 1.14 µM and above 100 µM.
In the same order, the values of `CCCN(/N=C/c1ccccc1C(=O)O)c1nc(-c2ccccc2Cl)cs1` [Compound 3] are 2.35 µM, 5.42 µM and 2.38 µM.
`Cc1ccc(/C=N/N(C)c2nc(-c3ccccc3)c(C)s2)c(C(=O)O)c1` [Compound 11]: the EC50 in data set [1] (setting [7]) was above 100 µM.
On to `CN(/N=C/c1ccc(F)cc1C(=O)O)c1nc(-c2ccccc2Cl)cs1` [Compound 10], for which the EC50 in data set [1] (setting [7]) was 0.1 µM; in the data set with Ebola virus replicon (setting [8]), 0.32 µM; in data set [2] (setting [9]), 3.2 µM.
For `O=C(O)c1cc(F)ccc1/C=N/Nc1nc(-c2ccccc2Cl)cs1` [Compound 10-1], in that order: 0.11 µM, 0.97 µM and 0.33 µM.
For `Cc1ccc(/C=N/N(C)c2nc(-c3ccccc3Cl)cs2)c(C(=O)O)c1` [Compound 9], in that order: 0.29 µM, 2.26 µM and 1.37 µM.
